In ChEMBL document CHEMBL1150137, “Nanjiols A-C, new steroids from the Chinese soft coral Nephthea bayeri” (J Nat Prod, 2002) one finds IC50 data, which are given here for 1 molecule.

The test system of the test is HL-60. Nature of the test: Cytotoxicity against human HL60 cells. Format: functional, cell-based.

Each structure is given as a SMILES string. In brackets after ≈: the same amount, converted by molar mass.

For `CC(=O)O[C@H]1C[C@H]2[C@@H]3CCC4=CC(=O)CC[C@]4(C)[C@H]3C[C@@H](OC(C)=O)[C@]2(C)[C@H]1[C@@](C)(O)CCCC(C)C` [NANJIOL B], half-maximal inhibition (IC50) was put at 5 µg/mL (≈ 9.68 µM).

For orientation: IC50 means the concentration needed to halve the response being measured.
